In patent US8501446B2 (Vertex Pharmaceuticals Incorporated, priority 2004, dated 2013):

Assays:
[1] = molecular target: T1, full length Aurora-A (AA 1-403) (Homo sapiens, UniProt O14965); assay: Aurora-A inhibition assay, standard coupled enzyme system; format: biochemical; details: average Ki if more than one value determined
T1 construct: full length Aurora-A (AA 1-403)
T1 sequence (O14965 1-403): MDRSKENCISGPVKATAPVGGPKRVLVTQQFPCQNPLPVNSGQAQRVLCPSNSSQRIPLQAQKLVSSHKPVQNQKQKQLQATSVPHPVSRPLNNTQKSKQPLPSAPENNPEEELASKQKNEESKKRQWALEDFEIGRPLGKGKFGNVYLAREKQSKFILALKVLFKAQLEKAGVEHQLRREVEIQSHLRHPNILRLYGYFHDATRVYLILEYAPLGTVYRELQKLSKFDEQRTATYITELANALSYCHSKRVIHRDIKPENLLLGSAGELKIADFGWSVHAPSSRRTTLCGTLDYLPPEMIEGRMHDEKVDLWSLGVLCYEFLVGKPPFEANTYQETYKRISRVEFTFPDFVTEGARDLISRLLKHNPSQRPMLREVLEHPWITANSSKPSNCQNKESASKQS
Description: Compounds were screened for their ability to inhibit full length Aurora-A (AA 1-403) activity using a standard coupled enzyme system (Fox et al., Protein Sci. 7, pp. 2249 (1998)). Reactions were carried out in a solution containing 100 mM HEPES (pH 7.5), 10 mM MgCl2, 25 mM NaCl, 300 μM NADH, 1 mM DTT and 3% DMSO. Final substrate concentrations in the assay were 200 μM ATP (Sigma Chemicals, St Louis, Mo.) and 800 μM peptide (LRRASLG, American Peptide, Sunnyvale, Calif.). Reactions were carried out at 30° C. and 35 nM Aurora-A. Final concentrations of the components of the coupled enzyme system were 2.5 mM phosphoenolpyruvate, 200 μM NADH, 60 μg/ml pyruvate kinase and 20 μg/ml lactate dehydrogenase.
An assay stock buffer solution was prepared containing all of the reagents listed above with the exception of ATP and the test compound of interest. The assay stock buffer solution (60 μl) was incubated in a 96 well plate with 2 μl of the test compound of interest at final concentrations spanning 0.002 μM to 30 μM at 30° C. for 10 min. Typically, a 12 point titration was conducted by preparing serial dilutions (from 1 mM compound stocks) with DMSO of the test compounds in daughter plates. The reaction was initiated by the addition of 5 μl of ATP (final concentration 200 μM). Rates of reaction were obtained using a Molecular Devices Spectramax plate reader (Sunnyvale, Calif.) over 10 min at 30° C. The Ki values were determined from the rate data as a function of inhibitor concentration using computerized nonlinear regression (Prism 3.0, Graphpad Software, San Diego, Calif.). Aurora-C activity was screened in a similar manner using Aurora-C protein. Aurora-B activity was screened using a radioactive assay, such as described in Examples 1 and 2, but using Aurora-B protein.

ROCK I (AA 6-553) = molecular target: T2, ROCK I (AA 6-553) (Homo sapiens, UniProt Q13464); assay: ROCK inhibition assay, standard coupled enzyme system ("Enzyme"); format: biochemical; details: enzyme-linked assay
T2 construct: ROCK I (AA 6-553)
T2 sequence (Q13464 6-553, species assumed): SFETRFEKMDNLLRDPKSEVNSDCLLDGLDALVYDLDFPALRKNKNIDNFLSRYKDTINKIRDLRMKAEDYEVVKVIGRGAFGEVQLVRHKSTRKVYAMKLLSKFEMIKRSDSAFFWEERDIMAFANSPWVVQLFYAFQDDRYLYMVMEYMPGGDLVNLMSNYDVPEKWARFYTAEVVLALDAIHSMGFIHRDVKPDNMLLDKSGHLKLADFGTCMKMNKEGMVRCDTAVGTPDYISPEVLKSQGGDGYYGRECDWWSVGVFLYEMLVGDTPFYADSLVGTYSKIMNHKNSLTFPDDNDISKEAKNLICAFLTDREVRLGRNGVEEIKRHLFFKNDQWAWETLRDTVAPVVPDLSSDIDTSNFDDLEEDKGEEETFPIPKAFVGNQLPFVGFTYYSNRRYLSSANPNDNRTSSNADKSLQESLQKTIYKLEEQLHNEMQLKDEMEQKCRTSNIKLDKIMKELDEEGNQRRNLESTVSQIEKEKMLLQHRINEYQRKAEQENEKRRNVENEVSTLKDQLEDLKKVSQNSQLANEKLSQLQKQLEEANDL
Description: Compounds were screened for their ability to inhibit ROCK I (AA 6-553) activity using a standard coupled enzyme system (Fox et al. (1998) Protein Sci. 7, 2249). Reactions were carried out in a solution containing 100 mM HEPES (pH 7.5), 10 mM MgCl2, 25 mM NaCl, 2 mM DTT and 1.5% DMSO. Final substrate concentrations in the assay were 45 μM ATP (Sigma Chemicals, St Louis, Mo.) and 200 μM peptide (American Peptide, Sunnyvale, Calif.). Reactions were carried out at 30° C. and 45 nM ROCK L. Final concentrations of the components of the coupled enzyme system were 2.5 mM phosphoenolpyruvate, 350 μM NADH, 30 μg/ml pyruvate kinase and 10 μg/ml lactate dehydrogenase.

Row | Compound | Ki [1] [µM] | Ki (ROCK I (AA 6-553)) [µM]
1 | C[Si](C)(C)c1[nH]c2ncc(-c3ccccc3)cc2c1-c1ccccc1 [Compound 210] | 0.5 to 5 | 
2 | CCCCNC(=O)c1cccc(-c2c[nH]c3ncc(-c4ccccc4)cc23)c1 [Compound 220] | 0.5 to 5 | 0.5 to 5
3 | CS(=O)(=O)c1cccc(-c2c[nH]c3ncc(-c4ccc(F)cc4)cc23)c1 [Compound 221] | < 0.5 | < 0.5
4 | COc1ccc(-c2c[nH]c3ncc(-c4ccc(F)cc4)cc23)cc1OC [Compound 222] | < 0.5 | < 0.5
5 | Fc1ccc(-c2cnc3[nH]cc(-c4ccc(F)cc4)c3c2)cc1 [Compound 223] | 0.5 to 5 | 0.5 to 5
6 | COc1ccc(-c2c[nH]c3ncc(-c4ccc(F)cc4)cc23)cc1 [Compound 224] | < 0.5 | < 0.5
7 | O=C(c1cccc(-c2c[nH]c3ncc(-c4cc(Cl)cc(Cl)c4)cc23)c1)N1CCOCC1 [Compound 225] | 0.5 to 5 | 0.5 to 5
8 | CCNC(=O)c1cccc(-c2c[nH]c3ncc(-c4cc(Cl)cc(Cl)c4)cc23)c1 [Compound 226] | 0.5 to 5 | 
9 | NC(=O)c1ccc(-c2c[nH]c3ncc(-c4ccc(F)cc4)cc23)cc1 [Compound 227] | < 0.5 | < 0.5
10 | NC(=O)c1cccc(-c2c[nH]c3ncc(-c4ccc(F)cc4)cc23)c1 [Compound 228] | < 0.5 | < 0.5
11 | O=Cc1ccc(-c2c[nH]c3ncc(-c4ccccc4)cc23)cc1 [Compound 229] | < 0.5 | 0.5 to 5
12 | CC(=O)NCc1ccc(-c2c[nH]c3ncc(-c4ccccc4)cc23)cc1 [Compound 230] | 0.5 to 5 | 0.5 to 5
13 | CC(=O)c1ccc(-c2c[nH]c3ncc(-c4ccccc4)cc23)cc1 [Compound 231] | < 0.5 | < 0.5
14 | Nc1ccc(-c2c[nH]c3ncc(-c4ccccc4)cc23)cc1 [Compound 232] | < 0.5 | 0.5 to 5
15 | CNS(=O)(=O)c1ccc(-c2c[nH]c3ncc(-c4ccccc4)cc23)cc1 [Compound 233] |  | 0.5 to 5
16 | CS(=O)(=O)Nc1ccc(-c2c[nH]c3ncc(-c4ccccc4)cc23)cc1 [Compound 234] | < 0.5 | 
17 | NC(=O)c1ccc(-c2c[nH]c3ncc(-c4ccoc4)cc23)cc1 [Compound 235] | < 0.5 | < 0.5
18 | NC(=O)c1ccc(-c2c[nH]c3ncc(-c4ccsc4)cc23)cc1 [Compound 236] | < 0.5 | 
19 | COc1cccc(-c2cnc3[nH]cc(-c4ccc(C(N)=O)cc4)c3c2)c1 [Compound 239] | < 0.5 | < 0.5
20 | Clc1cnc2[nH]cc(-c3cccc(Br)n3)c2c1 [Compound 240] | < 0.5 | 0.5 to 5
21 | Clc1cnc2[nH]cc(-c3cccc(N4CCCC4)n3)c2c1 [Compound 241] | 0.5 to 5 | 

Row | Compound | Ki [1] [µM] | Ki (ROCK I (AA 6-553)) [µM]
22 | Clc1cnc2[nH]cc(-c3cccc(Nc4ccccc4)n3)c2c1 [Compound 243] | < 0.5 | 0.5 to 5
23 | Clc1ccc(CNc2cccc(-c3c[nH]c4ncc(Cl)cc34)n2)c(Cl)c1 [Compound 244] | 0.5 to 5 | 0.5 to 5
24 | CC(C)(C)OC(=O)N(Cc1ccc(S(C)(=O)=O)cc1)c1cccc(-c2c[nH]c3ncc(Cl)cc23)n1 [Compound 245] | < 0.5 | 
25 | Nc1cccc(-c2c[nH]c3ncc(Cl)cc23)n1 [Compound 246] | 0.5 to 5 | 0.5 to 5
26 | CS(=O)(=O)c1ccc(CNc2cccc(-c3c[nH]c4ncc(Cl)cc34)n2)cc1 [Compound 247] | < 0.5 | 0.5 to 5
27 | Clc1cnc2[nH]cc(-c3cccc(Sc4ccccc4Cl)n3)c2c1 [Compound 248] | < 0.5 | 0.5 to 5
28 | O=C(Nc1cccc(-c2c[nH]c3ncc(Cl)cc23)n1)c1ccccc1 [Compound 249] | < 0.5 | 0.5 to 5
29 | CC(C)(C)OC(=O)Nc1cccc(-c2c[nH]c3ncc(Cl)cc23)n1 [Compound 250] | < 0.5 | 0.5 to 5
30 | Nc1cccc(-c2c[nH]c3ncc(-c4ccccc4)cc23)n1 [Compound 268] | 0.5 to 5 | 
31 | c1ccc(CNc2cccc(-c3c[nH]c4ncc(-c5ccccc5)cc34)n2)cc1 [Compound 269] | < 0.5 | 
32 | CNc1cccc(-c2c[nH]c3ncccc23)n1 [Compound 272] | 0.5 to 5 | 
33 | CC(C)C(=O)Nc1cccc(-c2c[nH]c3ncc(Cl)cc23)n1 [Compound 279] | 0.5 to 5 | 
34 | O=C(Cc1ccccc1)Nc1cccc(-c2c[nH]c3ncc(Cl)cc23)n1 [Compound 280] | < 0.5 | 
35 | O=C(Nc1cccc(-c2c[nH]c3ncc(Cl)cc23)n1)c1ccccc1Cl [Compound 281] | < 0.5 | 
36 | O=C(Nc1cccc(-c2c[nH]c3ncc(Cl)cc23)n1)c1cccc(Cl)c1 [Compound 282] | < 0.5 | 
37 | CC(=O)Nc1cccc(-c2c[nH]c3ncc(Cl)cc23)n1 [Compound 283] | 0.5 to 5 | 
38 | c1ccc(-c2cnc3[nH]cc(-c4cccc(NC5CCCCC5)n4)c3c2)cc1 [Compound 287] | < 0.5 | 
39 | O=C(Nc1cccc(-c2c[nH]c3ncc(Cl)cc23)n1)C1CCCCC1 [Compound 288] | < 0.5 | 
40 | NC(=O)c1ccc(-c2c[nH]c3ncc(CCc4ccccc4)cc23)cc1 [Compound 303] |  | < 0.5
41 | NC(=O)c1ccc(-c2c[nH]c3ncc(Sc4ccccc4)cc23)cc1 [Compound 304] |  | 0.5 to 5
42 | Fc1cnc(-c2c[nH]c3ncc(Cl)cc23)nc1OCc1ccc(Cl)cc1 [Compound 314] | 0.5 to 5 | 

Row | Compound | Ki [1] [µM] | Ki (ROCK I (AA 6-553)) [µM]
43 | Clc1cnc2[nH]cc(-c3ncccn3)c2c1 [Compound 319] | 0.5 to 5 | 
44 | C[C@H](Nc1nc(-c2c[nH]c3ncc(Cl)cc23)ncc1F)c1cccc(OCCN(C)C)c1 [Compound 320] | < 0.5 | 
45 | Nc1nc(-c2c[nH]c3ncc(Cl)cc23)ncc1F [Compound 332] | < 0.5 | 
46 | C[C@H](Nc1nc(-c2c[nH]c3ncc(CO)cc23)ncc1F)c1ccc(F)cc1 [Compound 334] | < 0.5 | 
47 | C[C@H](Nc1nc(-c2c[nH]c3ncc(N)cc23)ncc1F)c1ccc(F)cc1 [Compound 343] | 0.5 to 5 | 
48 | C[C@H](Nc1nc(-c2c[nH]c3ncc(C(=O)N(C)C)cc23)ncc1F)c1ccc(F)cc1 [Compound 346] | 0.5 to 5 | 
49 | C[C@H](Nc1nc(-c2c[nH]c3ncc(C(=O)O)cc23)ncc1F)c1ccc(F)cc1 [Compound 350] | 0.5 to 5 | 
50 | CN1CCC(Nc2nc(-c3c[nH]c4ncc(Cl)cc34)ncc2F)C1 (centres unmarked) [Compound 352] | < 0.5 | 
51 | N#Cc1ccnc(-c2c[nH]c3ncc(Cl)cc23)c1 [Compound 353] |  | 0.5 to 5
52 | CCOC(=O)Nc1cnc2[nH]cc(-c3ncc(F)c(N[C@@H](C)c4ccc(F)cc4)n3)c2c1 [Compound 358] | 0.5 to 5 | 
53 | NCCC[C@H](Nc1nc(-c2c[nH]c3ncc(Cl)cc23)ncc1F)C(=O)O [Compound 403] | 0.5 to 5 | 
54 | OCc1cc(-c2c[nH]c3ncc(Cl)cc23)nc(N2CCNCC2)c1 [Compound 405] | < 0.5 | 
55 | C#Cc1cc(-c2c[nH]c3ncc(Cl)cc23)nc(N2CCNCC2)c1 [Compound 412] | < 0.5 | 
56 | CC(C)CCNC(=O)[C@H](C)Nc1nc(-c2c[nH]c3ncc(Cl)cc23)ncc1F [Compound 464] | 0.5 to 5 | 
57 | CC[C@H](C)NC(=O)[C@H](C)Nc1nc(-c2c[nH]c3ncc(Cl)cc23)ncc1F [Compound 465] | < 0.5 | 
58 | C[C@H](Nc1nc(-c2c[nH]c3ncc(Cl)cc23)ncc1F)C(=O)NCCC(=O)O [Compound 466] | 0.5 to 5 | 
59 | CNC(=O)CCNC(=O)[C@H](C)Nc1nc(-c2c[nH]c3ncc(Cl)cc23)ncc1F [Compound 467] | < 0.5 | 
60 | CC(C)NC(=O)CCNC(=O)[C@H](C)Nc1nc(-c2c[nH]c3ncc(Cl)cc23)ncc1F [Compound 468] | < 0.5 | 
61 | CC(C)NS(=O)(=O)CCNC(=O)[C@H](C)Nc1nc(-c2c[nH]c3ncc(Cl)cc23)ncc1F [Compound 469] | < 0.5 | 
